The experiment deals with mouse ear. The experiment is described as follows: mouse ear swelling test (MEST). Particulars: BALB/c mouse. In kind it is in vivo. The procedure: To evaluate an effect of relieving skin irritation caused by a dye and for preventing or inhibiting inflammation caused by a dye, the mouse ear swelling test (MEST) using a mouse is carried out in the manner as described below.
A 7 weeks-aged mouse subject (BALC/c) is obtained and subjected to quarantine and adaptation for a period of 10 days. Then, the mouse is dehaired at its abdominal portion, and a main ingredient of dye, i.e. 3% paraphenylene diamine (PPD) is applied thereto in combination with a monosaccharide (glucose, galactose or fructose) or disaccharide (maltose, lactose or sucrose) for 7 days three times a day. As a control, each of dimethyl sulfoxide (DMSO) solvent and 3% PPD is applied. Twenty-four hours after the final application, the mouse ear is weighed. After weighing, the mouse ear is fixed in formalin and subjected to hematoxylin & eosin (H&E) staining for a histopathological test. Then, the thickness of the mouse ear is determined. Herein, the weight of the mouse ear is measured by biopsy of the ear of the mouse subject (Balb/c), to which each test sample is applied, using a 6 mm punch. The thickness of the mouse ear is determined by measuring the thickness of the ear of the mouse subject (Balb/c) stained after weighing the mouse ear weight by using a microscope.

As for `Nc1ccc(N)cc1` [PPD (3%), paraphenylene diamine], the Ear thickness (3% PPD alone or in combination with saccharide applied for 7 days three times a day, formalin-fixed, H&E stained ear measured by microscope) is 433.28 ± 11.57 μm. Also, for the setting “3% PPD alone or in combination with saccharide applied to dehaired abdominal portion for 7 days three times a day, ear weighed 24 h after final application, 6 mm punch biopsy”, the Ear weight amounted to 14.74 ± 0.23 mg.

The record behind these values is patent US20130225522A1, “COMPOSITION FOR RELIEVING STIMULUS OF SKIN CAUSED BY DYE” (Amorepacific Corporation, priority 2009, published 2013).
